Source: BindingDB's records for doi:10.1021/jm000119i (Rensselaer Polytechnic Institute, 2000)

Assay: Binding affinity to displace radioligand [3H]naltrindole on Opioid receptor delta 1 in guinea pig membranes.

Question: For CN1CC[C@]23c4c5ccc(N)c4O[C@H]2[C@@H](O)C=C[C@H]3[C@H]1C5, which Ki is on record?
Answer: Its Ki is 2.4 µM.

Question: With CN1CC[C@]23c4c5ccc(Nc6ccccc6)c4O[C@H]2[C@@H](O)C=C[C@H]3[C@H]1C5 as the molecule, how does the Ki read?
Answer: Its Ki is 1.5 µM.

Question: For CN1CC[C@]23c4c5ccc(NCc6ccccc6)c4O[C@H]2[C@@H](O)C=C[C@H]3[C@H]1C5, which Ki is on record?
Answer: Its Ki is 5.5 µM.

Question: Which Ki does the source give for CNc1ccc2c3c1O[C@H]1[C@@H](O)C=C[C@H]4[C@@H](C2)N(C)CC[C@@]341 here?
Answer: Its Ki is 5.7 µM.

Question: Which Ki does the source give for CN(C)c1ccc2c3c1O[C@H]1[C@@H](O)C=C[C@H]4[C@@H](C2)N(C)CC[C@@]341 here?
Answer: Its Ki is 1.6 µM.
